Data published in patent publication US20260070945A1, “MACROCYCLIC IMMUNOMODULATORS” (Bristol-Myers Squibb Company, priority 2022, published 2026).
*1 amine or outer side, *2 acyl side, *3 side chain or, on linkers, in order; H or OH if unused. Where a SMILES comes first, the peptide text is derived from it. Bridges are numbered along the chain shown (N, C = ends). [ ]: non-standard residue; d: D form. The star is where a group is joined. X8 = O=C(O)COc1ccc(C[C@H](N[*:1])C(=O)[*:2])cn1; Phe(4-COOH) = N[C@@H](Cc1ccc(C(=O)O)cc1)C(=O)O; Bip = N[C@@H](Cc1ccc(-c2ccccc2)cc1)C(=O)O; 4Pal = N[C@@H](Cc1ccncc1)C(=O)O; Cha = N[C@@H](CC1CCCCC1)C(=O)O; Carboxymethyl = O=C(O)C*; NMeA = CN[C@@H](C)C(=O)O; Orn = NCCC[C@H](N)C(=O)O; Aun = NCCCCCCCCCCC(=O)O; Dab = NCC[C@H](N)C(=O)O

Biological target: T1, PD-1/PD-L1 interaction (PE-labeled human PD-L1-Ig binding to Jurkat cell line over-expressing human PD-1) (Homo sapiens, UniProt Q15116)
T1 construct: expressed in transfected cells; host or cells: Jurkat
Test: Jurkat-PD-1 Cell Binding High-Content Screening Assay (CBA)
Conditions: Jurkat-hPD-1 cells, PE-labeled PD-L1-Ig 20 nM final; read-out: Jurkat HPD1 PDL1 IC50
Procedure, shortened: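 Cells 8×10^3/well, DMEM + 10% FCS; cpd 2 h, 37 °C; PE–PD-L1-Ig 20 nM final, 1 h; PFA fix + Hoechst 33342, 3× dPBS wash; high-content imager.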

T1 sequence (Q15116 25-288): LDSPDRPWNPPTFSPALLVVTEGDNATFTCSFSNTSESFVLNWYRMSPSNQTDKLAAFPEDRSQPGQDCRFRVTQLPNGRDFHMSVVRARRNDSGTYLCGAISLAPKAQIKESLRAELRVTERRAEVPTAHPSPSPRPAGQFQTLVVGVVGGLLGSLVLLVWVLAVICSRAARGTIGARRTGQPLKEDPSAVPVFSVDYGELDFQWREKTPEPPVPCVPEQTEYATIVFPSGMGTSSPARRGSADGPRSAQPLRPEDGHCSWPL

Compound	IC50
CC(C)C[C@@H]1NC(=O)[C@H](Cc2c[nH]c3ccccc23)NC(=O)[C@H](CC(=O)O)NC(=O)[C@H](Cc2ccc(OCC(=O)O)cc2)NC(=O)[C@H](Cc2ccccc2)NC(=O)CSC[C@@H](C(=O)N[C@@H](CCCN)C(=O)NCCCCCCCCCCC(=O)O)NC(=O)[C@H]([C@@H](C)O)NC(=O)[C@H](C(C)C)NC(=O)[C@H](CC(C)C)NC(=O)[C@H](CC(N)=O)NC(=O)[C@@H](CC(C)C)NC(=O)[C@H](C)N(C)C(=O)[C@H](C(C)C)NC(=O)[C@H](Cc2ccc(-c3ccccc3)cc2)NC1=O [Example 1335] ({CH2CO}-FY(Carboxymethyl)DWL[Bip]V[NMeA][dL]NLVTC[Orn][Aun]-OH; thioether N-14)	59 nM
CC(C)C[C@@H]1NC(=O)[C@H](Cc2c[nH]c3ccccc23)NC(=O)[C@H](CC(=O)O)NC(=O)[C@H](Cc2ccc(OCC(=O)O)cc2)NC(=O)[C@H](Cc2ccccc2)NC(=O)CSC[C@@H](C(=O)N[C@@H](CCCN)C(=O)NCCCCCCCCCCC(=O)O)NC(=O)[C@H](CCC(=O)O)NC(=O)[C@H](C(C)C)NC(=O)[C@H](CC(C)C)NC(=O)[C@H](CC(N)=O)NC(=O)[C@@H](CC(C)C)NC(=O)[C@H](C)N(C)C(=O)[C@H](C(C)C)NC(=O)[C@H](Cc2ccc(-c3ccccc3)cc2)NC1=O [Example 1336] ({CH2CO}-FY(Carboxymethyl)DWL[Bip]V[NMeA][dL]NLVEC[Orn][Aun]-OH; thioether N-14)	198 nM
CC(C)C[C@@H]1NC(=O)[C@H](Cc2c[nH]c3ccccc23)NC(=O)[C@H](CC(=O)O)NC(=O)[C@H](Cc2ccc(C(=O)O)cc2)NC(=O)[C@H](Cc2ccc(OCC(=O)O)cc2)NC(=O)CSC[C@@H](C(=O)N[C@@H](CCN)C(=O)NCCCCCCCCCCC(=O)O)NC(=O)[C@H](CCC(N)=O)NC(=O)[C@H](C(C)C)NC(=O)[C@H](CC2CCCCC2)NC(=O)[C@H](CCN)NC(=O)[C@@H](CC(C)C)NC(=O)[C@H](C)N(C)C(=O)[C@H](C(C)C)NC(=O)[C@H](Cc2ccc(-c3ccccc3)cc2)NC1=O [Example 1337] ({CH2CO}-Y(Carboxymethyl)[Phe(4-COOH)]DWL[Bip]V[NMeA][dL][Dab][Cha]VQC[Dab][Aun]-OH; thioether N-14)	9.9 nM
CC(C)C[C@@H]1NC(=O)[C@H](Cc2c[nH]c3ccccc23)NC(=O)[C@H](CC(=O)O)NC(=O)[C@H](Cc2ccc(C(=O)O)cc2)NC(=O)[C@H](Cc2ccc(OCC(=O)O)cc2)NC(=O)CSC[C@@H](C(=O)N[C@@H](CCN)C(=O)NCCCCCCCCCCC(=O)O)NC(=O)[C@@H](CCC(N)=O)NC(=O)[C@H](C(C)C)NC(=O)[C@H](CC2CCCCC2)NC(=O)[C@H](CCN)NC(=O)[C@@H](CC(C)C)NC(=O)[C@H](C)N(C)C(=O)[C@H](C(C)C)NC(=O)[C@H](Cc2ccc(-c3ccccc3)cc2)NC1=O [Example 1339] ({CH2CO}-Y(Carboxymethyl)[Phe(4-COOH)]DWL[Bip]V[NMeA][dL][Dab][Cha]V[dQ]C[Dab][Aun]-OH; thioether N-14)	28 nM
CC(C)C[C@@H]1NC(=O)[C@H](Cc2c[nH]c3ccccc23)NC(=O)[C@H](CC(=O)O)NC(=O)[C@H](Cc2ccncc2)NC(=O)[C@H](Cc2ccc(OCC(=O)O)cc2)NC(=O)CSC[C@@H](C(=O)N[C@@H](CCN)C(=O)NCCCCCCCCCCC(=O)O)NC(=O)[C@H](CCC(N)=O)NC(=O)[C@H](C(C)C)NC(=O)[C@H](CC2CCCCC2)NC(=O)[C@H](CCN)NC(=O)[C@@H](CC(C)C)NC(=O)[C@H](C)N(C)C(=O)[C@H](C(C)C)NC(=O)[C@H](Cc2ccc(-c3ccccc3)cc2)NC1=O [Example 1341] ({CH2CO}-Y(Carboxymethyl)[4Pal]DWL[Bip]V[NMeA][dL][Dab][Cha]VQC[Dab][Aun]-OH; thioether N-14)	9.1 nM
CC(C)C[C@@H]1NC(=O)[C@H](Cc2c[nH]c3ccccc23)NC(=O)[C@H](CC(=O)O)NC(=O)[C@H](Cc2ccncc2)NC(=O)[C@H](Cc2ccc(OCC(=O)O)cc2)NC(=O)CSC[C@@H](C(=O)N[C@@H](CCCN)C(=O)NCCCCCCCCCCC(=O)O)NC(=O)[C@H](CCC(N)=O)NC(=O)[C@H](C(C)C)NC(=O)[C@H](CC2CCCCC2)NC(=O)[C@H](CCN)NC(=O)[C@@H](CC(C)C)NC(=O)[C@H](C)N(C)C(=O)[C@H](C(C)C)NC(=O)[C@H](Cc2ccc(-c3ccccc3)cc2)NC1=O [Example 1342] ({CH2CO}-Y(Carboxymethyl)[4Pal]DWL[Bip]V[NMeA][dL][Dab][Cha]VQC[Orn][Aun]-OH; thioether N-14)	18 nM
CC(C)C[C@@H]1NC(=O)[C@H](Cc2c[nH]c3ccccc23)NC(=O)[C@H](CC(=O)O)NC(=O)[C@H](Cc2ccncc2)NC(=O)[C@H](Cc2ccc(OCC(=O)O)nc2)NC(=O)CSC[C@@H](C(=O)N[C@@H](CCN)C(=O)NCCCCCCCCCCC(=O)O)NC(=O)[C@H](CCC(N)=O)NC(=O)[C@H](C(C)C)NC(=O)[C@H](CC2CCCCC2)NC(=O)[C@H](CCN)NC(=O)[C@@H](CC(C)C)NC(=O)[C@H](C)N(C)C(=O)[C@H](C(C)C)NC(=O)[C@H](Cc2ccc(-c3ccccc3)cc2)NC1=O [Example 1343] ({CH2CO}-[X8][4Pal]DWL[Bip]V[NMeA][dL][Dab][Cha]VQC[Dab][Aun]-OH; thioether N-14)	39.2 nM
CC(C)C[C@@H]1NC(=O)[C@H](Cc2c[nH]c3ccccc23)NC(=O)[C@H](CC(=O)O)NC(=O)[C@H](Cc2ccncc2)NC(=O)[C@H](Cc2ccc(OCC(=O)O)cc2)NC(=O)CSC[C@@H](C(=O)N[C@@H](CCCN)C(=O)NCCCCCCCCCCC(=O)O)NC(=O)[C@@H](CCC(N)=O)NC(=O)[C@H](C(C)C)NC(=O)[C@H](CC2CCCCC2)NC(=O)[C@H](CCN)NC(=O)[C@@H](CC(C)C)NC(=O)[C@H](C)N(C)C(=O)[C@H](C(C)C)NC(=O)[C@H](Cc2ccc(-c3ccccc3)cc2)NC1=O [Example 1344] ({CH2CO}-Y(Carboxymethyl)[4Pal]DWL[Bip]V[NMeA][dL][Dab][Cha]V[dQ]C[Orn][Aun]-OH; thioether N-14)	69.5 nM
CC(C)C[C@@H]1NC(=O)[C@H](Cc2c[nH]c3ccccc23)NC(=O)[C@H](CC(=O)O)NC(=O)[C@H](Cc2ccc(OCC(=O)O)cc2)NC(=O)[C@H](Cc2ccccc2)NC(=O)CSC[C@@H](C(=O)N[C@@H](CCCN)C(=O)NCCCCCCCCCCC(=O)O)NC(=O)[C@H](CCC(N)=O)NC(=O)[C@H](C(C)C)NC(=O)[C@H](CC(C)C)NC(=O)[C@H](CC(N)=O)NC(=O)[C@@H](CC(C)C)NC(=O)[C@H](C)N(C)C(=O)[C@H](C(C)C)NC(=O)[C@H](Cc2ccc(-c3ccccc3)cc2)NC1=O [Example 1345] ({CH2CO}-FY(Carboxymethyl)DWL[Bip]V[NMeA][dL]NLVQC[Orn][Aun]-OH; thioether N-14)	118 nM
CC(C)C[C@@H]1NC(=O)[C@H](Cc2c[nH]c3ccccc23)NC(=O)[C@H](CC(=O)O)NC(=O)[C@H](Cc2ccc(OCC(=O)O)cc2)NC(=O)[C@H](Cc2ccccc2)NC(=O)CSC[C@@H](C(=O)N[C@@H](CCN)C(=O)NCCCCCCCCCCC(=O)O)NC(=O)[C@H](CCC(N)=O)NC(=O)[C@H](C(C)C)NC(=O)[C@H](CC(C)C)NC(=O)[C@H](CC(N)=O)NC(=O)[C@@H](CC(C)C)NC(=O)[C@H](C)N(C)C(=O)[C@H](C(C)C)NC(=O)[C@H](Cc2ccc(-c3ccccc3)cc2)NC1=O [Example 1346] ({CH2CO}-FY(Carboxymethyl)DWL[Bip]V[NMeA][dL]NLVQC[Dab][Aun]-OH; thioether N-14)	113 nM
